TGI data for eleven molecules are collected here from PubChem BioAssay (NCI).

Each structure is given as a SMILES string.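 How tested: cells in 96-well plates exposed to compound for 48 hours at five concentrations. TGI is the concentration that stops growth completely.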 A value given as a limit tells only on which side of the number the result lay.

Test systems include NCI-H23 lung; COLO 205 colon; SK-MEL-28 melanoma; HOP-92 NSCLC; HOP-62 NSCLC; SN12C renal; T-47D breast; OVCAR-3 ovarian; ACHN renal; HL-60(TB) leukemia.
Common to all, as to experiment: DTP human tumour cell line panel, 48 h

Regarding `Cc1nc2sc3ccccc3n2c(=O)c1N=Nc1ccc(Cl)cc1`, the TGI in the test with NCI-H23 lung, in the test with COLO 205 colon, in the test on SK-MEL-28 melanoma, in the test with HOP-92 NSCLC, in the test on HOP-62 NSCLC and in the test with SN12C renal was > 100 µM throughout. The TGI with T-47D breast, in the test on OVCAR-3 ovarian, in the test with ACHN renal and in the test on HL-60(TB) leukemia was > 100 µM throughout.
`COc1ccc(NS(=O)(=O)c2ccc(NC(NC(=O)CC(C)C)(C(F)(F)F)C(F)(F)F)cc2)nn1`: the TGI in the test with NCI-H23 lung, in the test on COLO 205 colon, with SK-MEL-28 melanoma, in the test on HOP-92 NSCLC, in the test with HOP-62 NSCLC and in the test on SN12C renal was > 100 µM in each case. The TGI in the test with T-47D breast, with OVCAR-3 ovarian, with ACHN renal and with HL-60(TB) leukemia was > 100 µM in each case.
Consider `COc1nc2nccnc2c(=O)n1C`, for which the TGI in the test with NCI-H23 lung, in the test with COLO 205 colon, in the test with SK-MEL-28 melanoma, in the test with HOP-92 NSCLC, with HOP-62 NSCLC and in the test on SN12C renal was > 10 µM each time. The TGI with T-47D breast, with OVCAR-3 ovarian, in the test with ACHN renal and in the test with HL-60(TB) leukemia was > 10 µM each time.
Take `NC(CCC(=O)NC(CSCC1C(=O)Nc2ccccc21)C(=O)NCC(=O)O)C(=O)O` (stereo unspecified): the TGI in the test with NCI-H23 lung came out at 11.3 µM; in the test on COLO 205 colon, 10.5 µM; in the test on SK-MEL-28 melanoma, 14.5 µM; in the test on HOP-92 NSCLC it was 9.55 µM; in the test on HOP-62 NSCLC it was 38.6 µM; in the test with SN12C renal, 13.9 µM. The TGI is > 23.3 µM with T-47D breast, 11.2 µM in the test on OVCAR-3 ovarian, 20 µM in the test on ACHN renal and 47.5 µM in the test with HL-60(TB) leukemia.
For `CCN1CCC(O)(/C=C/c2ccc(C)cc2C)C(C(=O)/C=C/c2ccc(C)cc2C)C1` (stereo unspecified), the TGI was found to be 7.86 µM with NCI-H23 lung; 4.05 µM with COLO 205 colon; 10.9 µM in the test on SK-MEL-28 melanoma; 3.8 µM in the test with HOP-92 NSCLC; 8.54 µM in the test on HOP-62 NSCLC; 7.04 µM in the test on SN12C renal. Moreover, the TGI is 8.01 µM with T-47D breast, 7.84 µM in the test on OVCAR-3 ovarian, 3.47 µM with ACHN renal and > 100 µM with HL-60(TB) leukemia.
Take `Nc1nc(Cl)cc(NCC2(CO)CCCC2)n1`: the TGI with NCI-H23 lung, in the test with COLO 205 colon, with SK-MEL-28 melanoma, in the test on HOP-92 NSCLC, in the test with HOP-62 NSCLC and in the test with SN12C renal was > 100 µM in each case. In addition, the TGI in the test with T-47D breast, in the test on OVCAR-3 ovarian, with ACHN renal and in the test with HL-60(TB) leukemia was > 100 µM in each case.
For `COc1ccc2c(cnc3c4cc(OC)c(OC)cc4ccc23)c1`, the TGI in the test on NCI-H23 lung, in the test on COLO 205 colon, with SK-MEL-28 melanoma, in the test on HOP-92 NSCLC, in the test on HOP-62 NSCLC and in the test with SN12C renal was > 100 µM throughout. Moreover, the total growth inhibition concentration (TGI) in the test on T-47D breast, with OVCAR-3 ovarian, in the test with ACHN renal and with HL-60(TB) leukemia was > 100 µM each time.
For `C=C([C@@]1(O)C[C@H]2[C@H](CCC2(OC)OC)[C@@H]2c3ccccc3O[C@@H]21)[Si](C)(C)C`, the TGI in the test with COLO 205 colon, in the test with SK-MEL-28 melanoma, with HOP-92 NSCLC, in the test with HOP-62 NSCLC, in the test with SN12C renal and in the test with T-47D breast was > 100 µM throughout. Also, the TGI was > 100 µM with OVCAR-3 ovarian, > 100 µM in the test with ACHN renal and 98.6 µM with HL-60(TB) leukemia.
As to `O=C1/C(=C/c2ccc(Cl)cc2)CSc2ccccc21`, the TGI was found to be 45.1 µM in the test with NCI-H23 lung; 64.3 µM in the test with COLO 205 colon; 44.1 µM in the test on SK-MEL-28 melanoma; 90.3 µM in the test on HOP-92 NSCLC; 63.9 µM in the test with HOP-62 NSCLC; 43.4 µM with SN12C renal. In addition, the TGI in the test on T-47D breast stood at 58.3 µM; in the test with OVCAR-3 ovarian, 49.1 µM; in the test on HL-60(TB) leukemia it was 64.6 µM.
As to `CC1=C(CO)C(=O)O[C@@H]([C@@H](CO)[C@H]2CCC3C4C[C@@H](O)[C@@]5(O)CC=CC(=O)[C@]5(C)C4CC[C@@]32C)C1` (stereo partly specified), the TGI in the test with NCI-H23 lung, with COLO 205 colon, in the test with HOP-92 NSCLC, in the test on HOP-62 NSCLC, in the test on SN12C renal and in the test with T-47D breast was > 100 µM throughout. The TGI in the test on OVCAR-3 ovarian is 83.9 µM; with ACHN renal it was > 100 µM; in the test with HL-60(TB) leukemia it was > 100 µM.
As for `Cc1ccc(S(=O)(=O)NC(=O)N[C@@H](Cc2cnc[nH]2)C(=O)O)cc1`, the TGI with NCI-H23 lung, in the test with COLO 205 colon, with SK-MEL-28 melanoma, with HOP-92 NSCLC, in the test on HOP-62 NSCLC and in the test with SN12C renal was > 100 µM in each case. Also, the TGI in the test with T-47D breast, in the test with ACHN renal and in the test on HL-60(TB) leukemia was > 100 µM throughout.

By TGI is commonly meant the concentration giving total growth inhibition.
